Laboratory results: patent publication US9914710B2, “Bicyclic arylcarboxylic acid amides and their use as herbicides” (BAYER CROPSCIENCE AKTIENGESELLSCHAFT, priority 2014, dated 2018)

Legend:
Experiment in all cases: Post-emergence herbicidal action against harmful plants
Assay type in all cases: in vivo
Conditions in all cases: one-leaf stage, application rate 80 g/ha, assessed visually after about 3 weeks vs untreated controls
Stellaria media = test system: Stellaria media
Protocol: (§1) Seeds of monocotyledonous and dicotyledonous weed and crop plants are laid out in sandy loam in wood-fiber pots, covered with soil and cultivated in a greenhouse under good growth conditions. 2 to 3 weeks after sowing, the test plants are treated at the one-leaf stage. The compounds of the invention, formulated in the form of wettable powders (WP) or as emulsion concentrates (EC), are then sprayed onto the green parts of the plants in the form of an aqueous suspension or emulsion at a water application rate equating to 600 to 800 I/ha, with addition of 0.2% wetting agent. After the test plants have been left to stand in the greenhouse under optimal growth conditions for about 3 weeks, the action of the preparations is assessed visually in comparison to untreated controls (herbicidal action in percent (%): 100% activity=the plants have died, 0% activity=like control plants). For example, compounds no. 1-18, 1-19, 1-20, 1-21, 1-23, 1-25, 1-26, 1-27, 1-30, 1-32, 1-51, 1-52, 1-53, 1-63, 1-65, 1-69, 1-70, 1-75, 1-76, 1-77, 1-78, 1-79, 1-80, 1-84, 2-18, 2-20 and 4-18 at an application rate of 80 g/ha each have 100% efficacy against Stellaria media, Veronica persica and Viola tricolor.

Veronica persica = test system: Veronica persica
Protocol: as §1

Viola tricolor = test system: Viola tricolor
Protocol: as §1

Cn1nnnc1NC(=O)c1cc2c(c([S+](C)[O-])c1Cl)CCC2 (racemic) [1-19]
100%: efficacy (herbicidal action in percent) against Stellaria media (Stellaria media) | efficacy (herbicidal action in percent) against Veronica persica (Veronica persica) | efficacy (herbicidal action in percent) against Viola tricolor (Viola tricolor)

CCn1nnnc1NC(=O)c1cc2c(c([S+](C)[O-])c1Cl)CCC2 (racemic) [1-25]
100%: efficacy (herbicidal action in percent) against Stellaria media (Stellaria media) | efficacy (herbicidal action in percent) against Veronica persica (Veronica persica) | efficacy (herbicidal action in percent) against Viola tricolor (Viola tricolor)

Cn1nnnc1NC(=O)c1cc2c(c([S+](C)[O-])c1Cl)CCCC2 (racemic) [1-52]
100%: efficacy (herbicidal action in percent) against Stellaria media (Stellaria media) | efficacy (herbicidal action in percent) against Veronica persica (Veronica persica) | efficacy (herbicidal action in percent) against Viola tricolor (Viola tricolor)

Cn1nnnc1NC(=O)c1cc2c(c([S+](C)[O-])c1Cl)CCO2 (racemic) [1-70]
100%: efficacy (herbicidal action in percent) against Stellaria media (Stellaria media) | efficacy (herbicidal action in percent) against Veronica persica (Veronica persica) | efficacy (herbicidal action in percent) against Viola tricolor (Viola tricolor)

Cn1nnnc1NC(=O)c1cc2c(c([S+](C)[O-])c1Br)CCC2 (racemic) [1-76]
100%: efficacy (herbicidal action in percent) against Stellaria media (Stellaria media) | efficacy (herbicidal action in percent) against Veronica persica (Veronica persica) | efficacy (herbicidal action in percent) against Viola tricolor (Viola tricolor)

CC[S+]([O-])c1c(Br)c(C(=O)Nc2nnnn2C)cc2c1CCC2 (racemic) [1-79]
100%: efficacy (herbicidal action in percent) against Stellaria media (Stellaria media) | efficacy (herbicidal action in percent) against Veronica persica (Veronica persica) | efficacy (herbicidal action in percent) against Viola tricolor (Viola tricolor)

CSc1c(Cl)c(C(=O)Nc2nnnn2C)cc2c1CCC2 [1-18]
100%: efficacy (herbicidal action in percent) against Stellaria media (Stellaria media) | efficacy (herbicidal action in percent) against Veronica persica (Veronica persica) | efficacy (herbicidal action in percent) against Viola tricolor (Viola tricolor)

Cn1nnnc1NC(=O)c1cc2c(c(S(C)(=O)=O)c1Cl)CCC2 [1-20]
100%: efficacy (herbicidal action in percent) against Stellaria media (Stellaria media) | efficacy (herbicidal action in percent) against Veronica persica (Veronica persica) | efficacy (herbicidal action in percent) against Viola tricolor (Viola tricolor)

CCSc1c(Cl)c(C(=O)Nc2nnnn2C)cc2c1CCC2 [1-21]
100%: efficacy (herbicidal action in percent) against Stellaria media (Stellaria media) | efficacy (herbicidal action in percent) against Veronica persica (Veronica persica) | efficacy (herbicidal action in percent) against Viola tricolor (Viola tricolor)

CCS(=O)(=O)c1c(Cl)c(C(=O)Nc2nnnn2C)cc2c1CCC2 [1-23]
100%: efficacy (herbicidal action in percent) against Stellaria media (Stellaria media) | efficacy (herbicidal action in percent) against Veronica persica (Veronica persica) | efficacy (herbicidal action in percent) against Viola tricolor (Viola tricolor)

CCn1nnnc1NC(=O)c1cc2c(c(S(C)(=O)=O)c1Cl)CCC2 [1-26]
100%: efficacy (herbicidal action in percent) against Stellaria media (Stellaria media) | efficacy (herbicidal action in percent) against Veronica persica (Veronica persica) | efficacy (herbicidal action in percent) against Viola tricolor (Viola tricolor)

CCSc1c(Cl)c(C(=O)Nc2nnnn2CC)cc2c1CCC2 [1-27]
100%: efficacy (herbicidal action in percent) against Stellaria media (Stellaria media) | efficacy (herbicidal action in percent) against Veronica persica (Veronica persica) | efficacy (herbicidal action in percent) against Viola tricolor (Viola tricolor)

CSc1c(Cl)c(C(=O)Nc2nnnn2C)cc2c1C(=O)CC2 [1-30]
100%: efficacy (herbicidal action in percent) against Stellaria media (Stellaria media) | efficacy (herbicidal action in percent) against Veronica persica (Veronica persica) | efficacy (herbicidal action in percent) against Viola tricolor (Viola tricolor)

Cn1nnnc1NC(=O)c1cc2c(c(S(C)(=O)=O)c1Cl)C(=O)CC2 [1-32]
100%: efficacy (herbicidal action in percent) against Stellaria media (Stellaria media) | efficacy (herbicidal action in percent) against Veronica persica (Veronica persica) | efficacy (herbicidal action in percent) against Viola tricolor (Viola tricolor)

CSc1c(Cl)c(C(=O)Nc2nnnn2C)cc2c1CCCC2 [1-51, N-(1-methyltetrazol-5-yl)-3-chloro-4-(methylthio)-5,6,7,8-tetrahydronaphthalene-2-carboxamide]
100%: efficacy (herbicidal action in percent) against Stellaria media (Stellaria media) | efficacy (herbicidal action in percent) against Veronica persica (Veronica persica) | efficacy (herbicidal action in percent) against Viola tricolor (Viola tricolor)

Cn1nnnc1NC(=O)c1cc2c(c(S(C)(=O)=O)c1Cl)CCCC2 [1-53]
100%: efficacy (herbicidal action in percent) against Stellaria media (Stellaria media) | efficacy (herbicidal action in percent) against Veronica persica (Veronica persica) | efficacy (herbicidal action in percent) against Viola tricolor (Viola tricolor)

CSc1c(Cl)c(C(=O)Nc2nnnn2C)cc2c1OCC2 [1-63]
100%: efficacy (herbicidal action in percent) against Stellaria media (Stellaria media) | efficacy (herbicidal action in percent) against Veronica persica (Veronica persica) | efficacy (herbicidal action in percent) against Viola tricolor (Viola tricolor)

Cn1nnnc1NC(=O)c1cc2c(c(S(C)(=O)=O)c1Cl)OCC2 [1-65]
100%: efficacy (herbicidal action in percent) against Stellaria media (Stellaria media) | efficacy (herbicidal action in percent) against Veronica persica (Veronica persica) | efficacy (herbicidal action in percent) against Viola tricolor (Viola tricolor)

CSc1c(Cl)c(C(=O)Nc2nnnn2C)cc2c1CCO2 [1-69]
100%: efficacy (herbicidal action in percent) against Stellaria media (Stellaria media) | efficacy (herbicidal action in percent) against Veronica persica (Veronica persica) | efficacy (herbicidal action in percent) against Viola tricolor (Viola tricolor)

CSc1c(Br)c(C(=O)Nc2nnnn2C)cc2c1CCC2 [1-75]
100%: efficacy (herbicidal action in percent) against Stellaria media (Stellaria media) | efficacy (herbicidal action in percent) against Veronica persica (Veronica persica) | efficacy (herbicidal action in percent) against Viola tricolor (Viola tricolor)

Cn1nnnc1NC(=O)c1cc2c(c(S(C)(=O)=O)c1Br)CCC2 [1-77]
100%: efficacy (herbicidal action in percent) against Stellaria media (Stellaria media) | efficacy (herbicidal action in percent) against Veronica persica (Veronica persica) | efficacy (herbicidal action in percent) against Viola tricolor (Viola tricolor)

CCSc1c(Br)c(C(=O)Nc2nnnn2C)cc2c1CCC2 [1-78]
100%: efficacy (herbicidal action in percent) against Stellaria media (Stellaria media) | efficacy (herbicidal action in percent) against Veronica persica (Veronica persica) | efficacy (herbicidal action in percent) against Viola tricolor (Viola tricolor)

CCS(=O)(=O)c1c(Br)c(C(=O)Nc2nnnn2C)cc2c1CCC2 [1-80]
100%: efficacy (herbicidal action in percent) against Stellaria media (Stellaria media) | efficacy (herbicidal action in percent) against Veronica persica (Veronica persica) | efficacy (herbicidal action in percent) against Viola tricolor (Viola tricolor)

CCSc1c(Br)c(C(=O)Nc2nnnn2CC)cc2c1CCC2 [1-84]
100%: efficacy (herbicidal action in percent) against Stellaria media (Stellaria media) | efficacy (herbicidal action in percent) against Veronica persica (Veronica persica) | efficacy (herbicidal action in percent) against Viola tricolor (Viola tricolor)

CSc1c(Cl)c(C(=O)Nc2ncnn2C)cc2c1CCC2 [2-18]
100%: efficacy (herbicidal action in percent) against Stellaria media (Stellaria media) | efficacy (herbicidal action in percent) against Veronica persica (Veronica persica) | efficacy (herbicidal action in percent) against Viola tricolor (Viola tricolor)

Cn1ncnc1NC(=O)c1cc2c(c(S(C)(=O)=O)c1Cl)CCC2 [2-20]
100%: efficacy (herbicidal action in percent) against Stellaria media (Stellaria media) | efficacy (herbicidal action in percent) against Veronica persica (Veronica persica) | efficacy (herbicidal action in percent) against Viola tricolor (Viola tricolor)

CSc1c(Cl)c(C(=O)Nc2nnc(C)o2)cc2c1CCC2 [4-18]
100%: efficacy (herbicidal action in percent) against Stellaria media (Stellaria media) | efficacy (herbicidal action in percent) against Veronica persica (Veronica persica) | efficacy (herbicidal action in percent) against Viola tricolor (Viola tricolor)
